Columns and labels:
[1] = system: Kuramochi cells; experiment: IncuCyte Kuramochi Assay (cell proliferation); type: cell-based; conditions: 72 h, Kuramochi cells labeled with mApple-H2B, cell count, read-out: IncuCyte - Kuramochi RB-WT: IC50
In short: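 GI50 came from dose-response fits of cell-count fold change between 0 and 72 h, normalized to DMSO controls. Counts were fluorescent nuclei from live-cell images over a 10-point, ½ log series starting at 20 μM.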

[2] = target: T1, CDK2/Cyclin E1 (Homo sapiens, UniProt P24941); experiment: ADPGLO (CDK2/E1-37 C), ADP-Glo Luminescent Kinase Assay; type: biochemical; conditions: 0.18 nM CDK2/Cyclin E1, 100 μM ATP, Histone H1, 37° C.
T1 construct: purchased 14-475
Method: Inhibition of CDK2/Cyclin E1 activity by the presence of small molecules was evaluated using ADP-Glo Luminescent Kinase Assay (Promega). Activated CDK2/Cyclin E1 was incubated with its substrate Histone H1 (SignalChem H10-54N) in the kinase reaction buffer (100 μM ATP, 50 mM HEPES pH 7.5, 10 mM MgCl2, 1 mM EDTA, 2 mM DTT, 0.01% Brij35, 0.5 mg/mL BSA). Luminescence was recorded with an Envision plate reader (PerkinElmer).
Dose titrations of inhibitors in 100% DMSO were combined with 0.36 nM CDK2/Cyclin E1 in reaction buffer. The mixtures were incubated for 60 minutes at 37° C. before the addition of ATP and Histone H1 substrate to initiate the kinase reaction. The final conditions were 0.18 nM CDK2/Cyclin E1, 100 μM ATP, and 1.5 μM Histone H1. The reactions were incubated at 37° C. for 90 minutes before being stopped with the addition of ADP-Glo reagent. This mixture was incubated at room temperature for 60 minutes before Kinase Detection Solution is added to generate luminescence. The stopped reactions were analyzed on an Envision plate reader. The conversion ratios were normalized to yield % activity, plotted against compound concentration, and fit to a four-parameter equation to determine the IC50 for each compound.

[3] = target: T1, CDK2/Cyclin E1; experiment: Caliper Assay (LabChip EZ Reader mobility shift assay), inhibition of CDK2/Cyclin E1 activity; type: biochemical; conditions: 2.5 nM CDK2/Cyclin E1(14-475), 100 μM ATP, 30 min preincubation; read-out: Caliper Assay (CDK2/CCNE1): IC50
In short: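 Compounds were preincubated 30 min with CDK2/Cyclin E1(14-475), then run for 100 min with 2.5 nM enzyme, 100 μM ATP and 1.5 μM 5-FAM-QSPKKG peptide in HEPES pH 7.5 (final). Reactions were EDTA-stopped and substrate-to-product conversion read by mobility shift. IC50 came from a four-parameter fit.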

IC50 [2] [µM]	IC50 [3] [µM]	SMILES	IC50 [1] [µM]
0.5 to 5		CC(c1nc(C2CN(C(=O)c3cnn(Cc4nnnn4C)c3)CC23CN(C(=O)[C@H]2CC2(C)C)C3)no1)n1ccc(C2CCCC2)n1 (stereo partly drawn) [I-111, (8-(5-(1-(3-cyclopentyl-1H-pyrazol-1-yl)ethyl)-1,2,4-oxadiazol-3-yl)-2-((S)-2,2-dimethylcyclopropane-1-carbonyl)-2,6-diazaspiro[3.4]octan-6-yl)(1-((1-methyl-1H-tetrazol-5-yl)methyl)-1H-pyrazol-4-yl)methanone]	5 to 10
	> 10	FC(F)(c1ccc(Cl)c(Cl)c1)c1nnc(C2CN(c3ncnc4ncsc34)CC23CN(c2ncccn2)C3)o1 (centres unmarked) [I-183, 2-((3,4-dichlorophenyl)difluoromethyl)-5-(2-(pyrimidin-2-yl)-6-(thiazolo[4,5-d]pyrimidin-7-yl)-2,6-diazaspiro[3.4]octan-8-yl)-1,3,4-oxadiazole]	> 10
	> 10	O=C(c1cncs1)N1CC(c2nnc(C(F)(F)c3ccc(Cl)c(Cl)c3)o2)C2(C1)CN(c1ccccn1)C2 (centres unmarked) [I-184]	> 10
	> 10	O=C(c1cncs1)N1CC(c2nnc(C(F)(F)c3ccc(Cl)c(Cl)c3)o2)C2(C1)CN(C(=O)N1CCC1)C2 (centres unmarked) [I-186, Azetidin-1-yl(8-(5-((3,4-dichlorophenyl)difluoromethyl)-1,3,4-oxadiazol-2-yl)-6-(thiazole-5-carbonyl)-2,6-diazaspiro[3.4]octan-2-yl)methanone]	> 10
	> 10	O=C(c1cncs1)N1CC(c2nnc(C(F)(F)c3ccc(Cl)c(Cl)c3)o2)C2(C1)CN(c1cccnn1)C2 (centres unmarked) [I-187, (8-(5-((3,4-dichlorophenyl)difluoromethyl)-1,3,4-oxadiazol-2-yl)-2-(pyridazin-3-yl)-2,6-diazaspiro[3.4]octan-6-yl)(thiazol-5-yl)methanone]	> 10
	1 to 10	CC(C)(CO)C(=O)N1CC2(CN(C(=O)c3cncs3)CC2c2nnc(C(F)(F)c3ccc(Cl)c(Cl)c3)o2)C1 (centres unmarked) [I-189]	> 10
	1 to 10	CC1(C)C[C@@H]1C(=O)N1CC2(C1)CN(c1ncnc3ncsc13)CC2c1nnc(C(F)(F)c2ccc(Cl)c(Cl)c2)o1 (stereo partly drawn) [I-192, (8-(5-((3,4-dichlorophenyl)difluoromethyl)-1,3,4-oxadiazol-2-yl)-6-(thiazolo[4,5-d]pyrimidin-7-yl)-2,6-diazaspiro[3.4]octan-2-yl)((S)-2,2-dimethylcyclopropyl)methanone]	5 to 10
	1 to 10	CC1(C)C[C@@H]1C(=O)N1CC2(CN(C(=O)c3cncs3)CC2c2cn(Cc3cccc(C(F)(F)F)c3)nn2)C1 (some centres unmarked) [I-195]	> 10
	> 10	CC(=O)N1CC2(C1)CN(C(=O)c1cncs1)CC2c1nnc(C(F)(F)c2ccc(Cl)c(Cl)c2)o1 (centres unmarked) [I-196]	> 10
	> 10	CC1(C)C[C@@H]1C(=O)N1CC2(CN(C(=O)c3cnc(Br)s3)CC2c2nnc(C(F)(F)c3ccc(Cl)c(Cl)c3)o2)C1 (some centres unmarked) [I-199]	5 to 10
	> 10	CC1(C)C[C@@H]1C(=O)N1CC2(CN(C(=O)c3cncs3)CC2c2cn(Cc3ccc(C(F)(F)F)cc3)nn2)C1 (some centres unmarked) [I-202]	> 10
	> 10	O=C(CC(F)(F)F)N1CC(c2nnc(C(F)(F)c3ccc(Cl)c(Cl)c3)o2)C2(C1)CN(C(=O)CC(F)(F)F)C2 (centres unmarked) [I-203]	> 10

More lines, now with the values behind:

SMILES	IC50 [2] [µM]	IC50 [3] [µM]	IC50 [1] [µM]
O=C(c1cnn(Cc2cccc3c2CCNC3)c1)N1CC(c2nnc(C(F)(F)c3ccc(Cl)c(Cl)c3)o2)C2(C1)CN(C(=O)C1(C(F)(F)F)CC1)C2 (centres unmarked) [I-106]	> 10		5 to 10
O=C(c1cnc(O)cn1)N1CC(c2nnc(C(COCc3ccccc3)c3cccc(C4CCCCC4)c3)o2)C2(C1)CN(C(=O)C1(C(F)(F)F)CC1)C2 (centres unmarked) [I-107, (8-(5-(2-(benzyloxy)-1-(3-cyclohexylphenyl)ethyl)-1,3,4-oxadiazol-2-yl)-2-(1-(trifluoromethyl)cyclopropane-1-carbonyl)-2,6-diazaspiro[3.4]octan-6-yl)(5-hydroxypyrazin-2-yl)methanone]	≤ 0.5		0.5 to 5
O=C(c1cnn(Cc2cccc3[nH]cnc23)c1)N1CC(c2nnc(C(F)(F)c3ccc(Cl)c(Cl)c3)o2)C2(C1)CN(C(=O)C1(C(F)(F)F)CC1)C2 (centres unmarked) [I-108, (1-((1H-benzo[d]imidazol-4-yl)methyl)-1H-pyrazol-4-yl)(8-(5-((3,4-dichlorophenyl)difluoromethyl)-1,3,4-oxadiazol-2-yl)-2-(1-(trifluoromethyl)cyclopropane-1-carbonyl)-2,6-diazaspiro[3.4]octan-6-yl)methanone]	0.5 to 5		5 to 10
CC(c1nc(C2CN(C(=O)c3cnn(CC(=O)O)c3)CC23CN(C(=O)[C@H]2CC2(C)C)C3)no1)n1ccc(C2CCCC2)n1 (stereo partly drawn) [I-110, 2-(4-(8-(5-(1-(3-cyclopentyl-1H-pyrazol-1-yl)ethyl)-1,2,4-oxadiazol-3-yl)-2-((S)-2,2-dimethylcyclopropane-1-carbonyl)-2,6-diazaspiro[3.4]octane-6-carbonyl)-1H-pyrazol-1-yl)acetic acid]	5 to 10		> 10
O=C(c1cncs1)N1CC(c2nnc(C(F)(F)c3ccc(Cl)c(Cl)c3)o2)C2(CN(CC3CCCO3)C2)C1 (centres unmarked) [I-182, (8-(5-((3,4-dichlorophenyl)difluoromethyl)-1,3,4-oxadiazol-2-yl)-2-((tetrahydrofuran-2-yl)methyl)-2,6-diazaspiro[3.4]octan-6-yl)(thiazol-5-yl)methanone]		> 10	> 10
CC1(C)C[C@@H]1C(=O)N1CC2(CN(C(=O)c3cnc(C#N)s3)CC2c2nnc(C(F)(F)c3ccc(Cl)c(Cl)c3)o2)C1 (some centres unmarked) [I-185]		> 10	5 to 10
CC(C)=CC(=O)N1CC2(C1)CN(C(=O)c1cncs1)CC2c1nnc(C(F)(F)c2ccc(Cl)c(Cl)c2)o1 (centres unmarked) [I-190]		> 10	> 10
O=C(c1cn[nH]c1)N1CC(c2nnc(C(F)(F)c3ccc(Cl)c(Cl)c3)o2)C2(C1)CN(C(=O)[C@H]1CC1(F)F)C2 (stereo partly drawn) [I-191, (8-(5-((3,4-dichlorophenyl)difluoromethyl)-1,3,4-oxadiazol-2-yl)-2-((R)-2,2-difluorocyclopropane-1-carbonyl)-2,6-diazaspiro[3.4]octan-6-yl)(1H-pyrazol-4-yl)methanone]		1 to 10	> 10
CC1(C)C[C@@H]1C(=O)N1CC2(CN(C(=O)c3cncs3)CC2c2cn(Cc3ccc(C4CC4)cc3)nn2)C1 (some centres unmarked) [I-193]		1 to 10	> 10
CC1(C)C[C@@H]1C(=O)N1CC2(CN(C(=O)c3cncs3)CC2c2cn(Cc3ccc(C4(C(F)(F)F)CC4)cc3)nn2)C1 (some centres unmarked) [I-194]		0.1 to 1	> 10
O=C(c1cncs1)N1CC(c2nnc(Cc3ccc(Cl)c(Cl)c3)o2)C2(C1)CN(c1ccccn1)C2 (centres unmarked) [I-197, (8-(5-(3,4-dichlorobenzyl)-1,3,4-oxadiazol-2-yl)-2-(pyridin-2-yl)-2,6-diazaspiro[3.4]octan-6-yl)(thiazol-5-yl)methanone]		> 10	> 10
C=C(c1ccc(C(F)(F)c2nnc(C3CN(C(=O)c4cncs4)CC34CN(C(=O)[C@H]3CC3(C)C)C4)o2)cc1)C(F)(F)F (stereo partly drawn) [I-198, (8-(5-(difluoro(4-(3,3,3-trifluoroprop-1-en-2-yl)phenyl)methyl)-1,3,4-oxadiazol-2-yl)-2-((S)-2,2-dimethylcyclopropane-1-carbonyl)-2,6-diazaspiro[3.4]octan-6-yl)(thiazol-5-yl)methanone]		0.01 to 0.1	0.5 to 5
CC(=O)N1CC(c2nnc(C(F)(F)c3ccc(Cl)c(Cl)c3)o2)C2(C1)CN(C(=O)[C@H]1CC1(C)C)C2 (some centres unmarked) [I-200]		> 10	> 10
CC1(C)C[C@@H]1C(=O)N1CC2(CN(C(=O)c3cncs3)CC2c2ncc(Cc3ccc(C(F)(F)F)c(Cl)c3)o2)C1 (stereo partly drawn) [I-201, (8-(5-(3-chloro-4-(trifluoromethyl)benzyl)oxazol-2-yl)-2-((S)-2,2-dimethylcyclopropane-1-carbonyl)-2,6-diazaspiro[3.4]octan-6-yl)(thiazol-5-yl)methanone]		0.1 to 1	5 to 10
CC(=O)N1CC(c2nnc(C(F)(F)c3ccc(Cl)c(Cl)c3)o2)C2(C1)CN(C(C)=O)C2 (centres unmarked) [I-204]		> 10	> 10
O=C(N1CC(c2nnc(C(F)(F)c3ccc(Cl)c(Cl)c3)o2)C2(C1)CN(C(=O)C(F)(F)F)C2)C(F)(F)F (centres unmarked) [I-205, 1,1′-(8-(5-((3,4-dichlorophenyl)difluoromethyl)-1,3,4-oxadiazol-2-yl)-2,6-diazaspiro[3.4]octane-2,6-diyl)bis(2,2,2-trifluoroethan-1-one)]		> 10	5 to 10

— US20260151375A1, “CDK2 INHIBITORS AND METHODS OF USING THE SAME” (Cedilla Therapeutics, Inc., priority 2022, published 2026)
